Source: EP2842965A1, “Neuromedin U analogs comprising serum albumin binding amino acid residue” (Gubra ApS, priority 2013, dated 2015)
Starred links: 1 amine or outer side, 2 acyl side, 3 side chain; linkers in the order of their positions; H or OH if unused. Residues, ends and D or L forms follow the SMILES beside them. Groups on a side chain read outwards from the residue. *: point of attachment. γGlu = O=C(O)[C@H](CCC(=O)[*:2])N[*:1]; Palmitoyl = CCCCCCCCCCCCCCCC(=O)*

Experiment: In vivo acute/dose response study of food intake in the HM2 system after SC dosing
Conditions: 6 hours post dosing, male NMRI mice
Procedure: Animals: A total of seventy two (72) male NMRI mice 6-7 weeks old (approx. 25 g BW) at the time of arrival were obtained from Taconic (Denmark) and transferred to the Gubra test stables. Upon arrival the animals will be transferred into the HM2 cages and housed in groups of four. The animal room environment were controlled (targeted ranges: temperature 22 ± 2°C; relative humidity 50 ± 10%; light/dark cycle: 12 hours light, 12 hours dark, lights on from 6 AM to 6 PM. […] have ad libitum access to Altromin (Brogaarden, Denmark) and tap water.
Run-in period: Mice arrived at day -7. A minimum of 5-7 days of habituation to the system was allowed before study start. During these days, animals were handled daily to accustom them to the experimental paradigm.
Runs in the HM2 system: In total five runs were performed in the HM2 system. There were at least 4 days of washout between each run.
Acute effect of lipidated analogues: Mice were re-randomized and the acute effects of the lipidated compounds were tested in an acute setting. Mice were dosed in doses equimolar to the concentration of NMU found to be semi-efficacious.
Dose response study: Different doses of the analogues were tested in order to establish a dose response relationship. Mice were re-randomized and four different doses of the five lipidated analogues were tested over two different runs in the HM2 system and compared with NMU at […] and liraglutide at 0.05 µmol/kg.
Randomization and experimentation: Animals were randomized according to body weight the day of dosing and stratified into the following experimental groups based on mean cage weight (n=4-8): • Pilot (PD) study run 1 (dose finding of NMU): • 1: Vehicle (0.9% NaCl, pH ∼ 4.0 and 0.1% BSA) (n=4) • 2: Native human Neuromedin U (NMU-25), sc, 1 mg/kg (n=4) • 3: Native human Neuromedin U (NMU-25), sc, 3 mg/kg (n=4) • 4: Native human Neuromedin U (NMU-25), sc, 10 mg/kg (n=4) • 5: PYY3-36, sc 1 mg/kg (n=4) • Pilot (PD) study run 2 (dose finding of NMU): • 1: Vehicle (0.9% NaCl, pH ∼ 4.0 and 0.1% BSA) (n=4) • 2: Native human Neuromedin U (NMU-25), sc, 1 mg/kg (n=4) • 3: Native human Neuromedin U (NMU-25), sc, 3 mg/kg (n=4) • Acute effects of lipidated analogues: • 1: Vehicle (PBS + 0.1% BSA+ 5.4% DMSO) SC • 2: Liraglutide 0.2 mg/kg, sc, 0.05 pmol/kg (n=8) • 3: Human neuromedin U 25 (NMU), sc, 1 µmol/kg (n=8) • 5: SEQ ID NO 17, sc, 1 pmol/kg (n=8) • 6: SEQ ID NO 14, sc, 1 pmol/kg (n=8) • 7: SEQ ID NO 11, sc, 1 pmol/kg (n=8) • 8: SEQ ID NO 8, sc, 1 pmol/kg (n=8) • 9: SEQ ID NO 5, sc, 1 pmol/kg (n=8) • Dose response study run 1 • 1: Vehicle (0.9% NaCl, pH ∼ 4.1 and 0.1% BSA) (n=6) • 2: Liraglutide 0.2 mg/kg, sc, 0.05 pmol/kg (n=4) • 3: Human neuromedin U 25 (NMU), sc, 1 µmol/kg (n=5) • 8: SEQ ID NO 17, sc, 1 pmol/kg (n=4) • 9: SEQ ID NO 17, sc, 0.3 pmol/kg (n=5) • 10: SEQ ID NO 17, sc, 0.1 µmol/kg (n=5) • 11: SEQ ID NO 17, sc, 0.03 pmol/kg (n=5) • 12: SEQ ID NO 14, sc, 1 pmol/kg (n=4) • 13: SEQ ID NO 14, sc, 0.3 pmol/kg (n=5) • 14: SEQ ID NO 14, sc, 0.1 pmol/kg (n=5) • 15: SEQ ID NO 14, sc, 0.03 pmol/kg (n=5) • Dose response study run 2 • 1: Vehicle (0.9%NaCl, pH ∼ 4.0 and 0.1% BSA) (n=5) • 2: Liraglutide 0.2 mg/kg, sc, 0.05 pmol/kg (n=4) • 3: Human neuromedin U 25 (NMU), sc, 1 µmol/kg (n=4) • 4: SEQ ID NO 11, sc, 1 pmol/kg (n=4) • 5: SEQ ID NO 11, sc, 0.3 pmol/kg (n=5) • 6: SEQ ID NO 11, sc, 0.1 pmol/kg (n=5) • 7: SEQ ID NO 11, sc, 0.03 pmol/kg (n=5) • 8: SEQ ID NO 8, sc, 1 pmol/kg (n=4) • 9: SEQ ID NO 8, sc, 0.3 pmol/kg (n=5) • 10: SEQ ID NO 8, sc, 0.1 pmol/kg (n=5) • 11: SEQ ID NO 8, sc, 0.03 pmol/kg (n=5) • 12: SEQ ID NO 5, sc, 1 pmol/kg (n=4) • 13: SEQ ID NO 5, sc, 0.3 pmol/kg (n=5) • 14: SEQ ID NO 5, sc, 0.1 µmol/kg (n=5) • 15: SEQ ID NO 5, sc, 0.03 pmol/kg (n=5) Dosing: All dosing took place just prior to lights out in the afternoon. Doses was administered subcutaneously (sc) (dose volume 10 ml/kg), alternating the injection site from the left to the right side of the lower back and inguinal region, respectively. […]

| Compound | Percent food intake reduction 6 hours post SC dosing (0.03 µmol/kg) [%] | Percent food intake reduction 6 hours post SC dosing (0.1 µmol/kg) [%] | Percent food intake reduction 6 hours post SC dosing (0.3 µmol/kg) [%] | Percent food intake reduction 6 hours post SC dosing (1.0 µmol/kg) [%] |
| --- | --- | --- | --- | --- |
| CCCCCCCCCCCCCCCC(=O)N[C@@H](CCC(=O)NCCCC[C@H](NC(=O)[C@H](CCC(N)=O)NC(=O)[C@H](CO)NC(=O)[C@H](C)NC(=O)[C@H](Cc1ccccc1)NC(=O)[C@@H]1CCCN1C(=O)[C@H](CO)NC(=O)[C@H](CCC(N)=O)NC(=O)[C@H](Cc1ccccc1)NC(=O)[C@H](CCC(=O)O)NC(=O)[C@H](CCC(=O)O)NC(=O)[C@H](CC(=O)O)NC(=O)[C@@H](NC(=O)[C@H](CCCNC(=N)N)NC(=O)[C@@H](N)Cc1ccccc1)C(C)C)C(=O)N[C@@H](CCCNC(=N)N)C(=O)NCC(=O)N[C@@H](Cc1ccc(O)cc1)C(=O)N[C@@H](Cc1ccccc1)C(=O)N[C@@H](CC(C)C)C(=O)N[C@@H](Cc1ccccc1)C(=O)N[C@@H](CCCNC(=N)N)C(=O)N1CCC[C@H]1C(=O)N[C@@H](CCCNC(=N)N)C(=O)N[C@@H](CC(N)=O)C(N)=O)C(=O)O [SEQ ID NO 5] (H-FRVDEEFQSPFASQK([γGlu-Palmitoyl])RGYFLFRPRN-NH2) | 41 | 41 | 61 | 76 |
| CCCCCCCCCCCCCCCC(=O)N[C@@H](CCC(=O)NCCCC[C@H](NC(=O)[C@H](C)NC(=O)[C@H](Cc1ccccc1)NC(=O)[C@@H]1CCCN1C(=O)[C@H](CO)NC(=O)[C@H](CCC(N)=O)NC(=O)[C@H](Cc1ccccc1)NC(=O)[C@H](CCC(=O)O)NC(=O)[C@H](CCC(=O)O)NC(=O)[C@H](CC(=O)O)NC(=O)[C@@H](NC(=O)[C@H](CCCNC(=N)N)NC(=O)[C@@H](N)Cc1ccccc1)C(C)C)C(=O)N[C@@H](CCC(N)=O)C(=O)N[C@@H](CO)C(=O)N[C@@H](CCCNC(=N)N)C(=O)NCC(=O)N[C@@H](Cc1ccc(O)cc1)C(=O)N[C@@H](Cc1ccccc1)C(=O)N[C@@H](CC(C)C)C(=O)N[C@@H](Cc1ccccc1)C(=O)N[C@@H](CCCNC(=N)N)C(=O)N1CCC[C@H]1C(=O)N[C@@H](CCCNC(=N)N)C(=O)N[C@@H](CC(N)=O)C(N)=O)C(=O)O [SEQ ID NO 8] (H-FRVDEEFQSPFAK([γGlu-Palmitoyl])QSRGYFLFRPRN-NH2) | 25 | 55 | 46 | 90 |
| CCCCCCCCCCCCCCCC(=O)N[C@@H](CCC(=O)NCCCC[C@H](NC(=O)[C@H](CCC(=O)O)NC(=O)[C@H](CC(=O)O)NC(=O)[C@@H](NC(=O)[C@H](CCCNC(=N)N)NC(=O)[C@@H](N)Cc1ccccc1)C(C)C)C(=O)N[C@@H](Cc1ccccc1)C(=O)N[C@@H](CCC(N)=O)C(=O)N[C@@H](CO)C(=O)N1CCC[C@H]1C(=O)N[C@@H](Cc1ccccc1)C(=O)N[C@@H](C)C(=O)N[C@@H](CO)C(=O)N[C@@H](CCC(N)=O)C(=O)N[C@@H](CO)C(=O)N[C@@H](CCCNC(=N)N)C(=O)NCC(=O)N[C@@H](Cc1ccc(O)cc1)C(=O)N[C@@H](Cc1ccccc1)C(=O)N[C@@H](CC(C)C)C(=O)N[C@@H](Cc1ccccc1)C(=O)N[C@@H](CCCNC(=N)N)C(=O)N1CCC[C@H]1C(=O)N[C@@H](CCCNC(=N)N)C(=O)N[C@@H](CC(N)=O)C(N)=O)C(=O)O [SEQ ID NO 14] (H-FRVDEK([γGlu-Palmitoyl])FQSPFASQSRGYFLFRPRN-NH2) | 5 | 31 | 79 | 89 |
| CCCCCCCCCCCCCCCC(=O)N[C@@H](CCC(=O)NCCCC[C@H](NC(=O)[C@@H](NC(=O)[C@H](CCCNC(=N)N)NC(=O)[C@@H](N)Cc1ccccc1)C(C)C)C(=O)N[C@@H](CCC(=O)O)C(=O)N[C@@H](CCC(=O)O)C(=O)N[C@@H](Cc1ccccc1)C(=O)N[C@@H](CCC(N)=O)C(=O)N[C@@H](CO)C(=O)N1CCC[C@H]1C(=O)N[C@@H](Cc1ccccc1)C(=O)N[C@@H](C)C(=O)N[C@@H](CO)C(=O)N[C@@H](CCC(N)=O)C(=O)N[C@@H](CO)C(=O)N[C@@H](CCCNC(=N)N)C(=O)NCC(=O)N[C@@H](Cc1ccc(O)cc1)C(=O)N[C@@H](Cc1ccccc1)C(=O)N[C@@H](CC(C)C)C(=O)N[C@@H](Cc1ccccc1)C(=O)N[C@@H](CCCNC(=N)N)C(=O)N1CCC[C@H]1C(=O)N[C@@H](CCCNC(=N)N)C(=O)N[C@@H](CC(N)=O)C(N)=O)C(=O)O [SEQ ID NO 17] (H-FRVK([γGlu-Palmitoyl])EEFQSPFASQSRGYFLFRPRN-NH2) | 20 | 43 | 64 | 78 |
